# Laboratory results as given in patent US7741506B2, “Probe for measuring phytase activity” (Berry & Associates, Inc., priority 2005, dated 2010).
# Legend:
# wheat 6-phytase = assay: 6-phytase assay with HPLC analysis; assay type: biochemical; settings: 0.27 U enzyme, 1.2 mM substrate, sodium acetate buffer 0.2M, pH 5.2, 50° C.
# Method: (§1) Referring now to FIGS. 2 through 5, the aforesaid exemplary probe according to the instant invention (compound 2 of FIG. 1) was employed in assays of 3-phytase and 6-phytase activity. The 3-phytase assay consisted of a solution combining A. ficuum 3-phytase (0.27 U) and the penta-ammonium salt of compound 2 (1.2 mM in glycine-HCl buffer 0.2M, pH 2.6, 3 mL). The 3-phytase assay was carried out at 37° C. The 6-phytase assay consisted of a solution combining wheat 6-phytase (0.27 U) and compound 2 (1.2 mM in sodium acetate buffer, 0.2M, pH 5.2, 3 mL). The 6-phytase assay was carried out at 50° C.
# (§2) Control assays were similarly prepared but lacked the phytase enzyme. Assays were carried out in tinted vials, capped with septa and stirred continuously. Aliquot samples (30 μL) were taken and diluted with methanol-water (58:42, 970 μL) for HPLC analysis over the 24-hour time course of the assay.
# (§3) Mobile phase (pH 4.0) was prepared by mixing methanol (580 mL), water (420 mL), tetrabutylammonium hydroxide (8 mL), 5N aqueous sulfuric acid (0.5 mL), and 6.4 mM aqueous phytic acid (0.2 mL). HPLC analysis was performed on an analytical HPLC system using a reversed phase column (Hamilton PRP-1, 5 μm, 150×4.6 mm). Compounds were quantified by the external standards method.
# A. ficuum 3-phytase = assay: 3-phytase assay with HPLC analysis; assay type: biochemical
# Method: as §1, §2, §3
smiles,measurement,setting,value
"O=C(NCCCCCCOC1[C@@H](OP(=O)(O)O)[C@H](OP(=O)(O)O)C(OP(=O)(O)O)[C@H](OP(=O)(O)O)[C@H]1OP(=O)(O)O)c1ccccc1 (stereo partly drawn) [compound 2, 5-O-[6-(benzoylamino)hexyl]-D-myo-inositol-1,2,3,4,6-pentakisphosphate]","substrate for 6-phytase (sequential dephosphorylation, HPLC)",wheat 6-phytase,serves equally well as a substrate
same,rate limiting step of the production of compound 7 from compound 2,"A. ficuum 3-phytase; 3-phytase, accumulation of the triphosphate, no significant diphosphate peak",conversion of triphosphate to diphosphate
same,conversion of compound 2 to compound 7 (complete dephosphorylation) in the presence of 3-phytase,"A. ficuum 3-phytase; after 24 hours of incubation, 0.27 U enzyme, 1.2 mM substrate, glycine-HCl buffer 0.2M, pH 2.6, 37° C., HPLC",completely converted
same,conversion in the enzyme free control,"A. ficuum 3-phytase; control lacking the phytase enzyme, 24 hours, glycine-HCl buffer pH 2.6, 37° C., HPLC",no conversion
same,amide bond cleavage separating the UV chromophore from the phytic acid core (benzoic acid by HPLC),A. ficuum 3-phytase; in the assay and in the control,no benzoic acid could be detected
